Results published in patent US20230312652A1, “NOVEL PEPTIDES AND USES THEREOF” (Aarhus Universitet, priority 2020, published 2023).
Where a SMILES comes first, the peptide text is derived from it.

Legend:
SH-SY5Y cells = assay: Lysosomal acidification in SH-SY5Y cells, LysoSensor Yellow/Blue DND-160; assay type: cell-based, human; conditions: 1 uM, 4 hours
Description: SH-SY5Y were seeded in poly-L coated black 96 well plate with clear bottom at a density of ˜3×10^4. The following day, the cells were stimulated with 1 uM P1 (SEQ ID NO: 1) for 4 hours and subsequently incubated with LysoSensor™ Yellow/Blue DND-160 (10 uM) for 20 min. Cells were rinsed with PBS and excitation 340 & 380 and emission 535 was read in a plate-reader. A pH calibration curve buffer was likewise measured. Calculation of the fluorescence intensity ratio of excitation (340/380) results in an average whole-cell intraorganellar pH reflective of all LysoSensor™ Yellow/Blue DND-160-labeled organelles combined. Using the generated linear trendline from the standard curve for pH and 340/380 intensity ratio, calculate the intraorganellar pH of samples.

BDNF, TFEB and PGC1a = assay: CREB-downstream target levels in wild-type cortical neurons; assay type: cell-based, mouse; conditions: 1 uM, 4 hours or 6 hours
Description: Cortical neurons were isolated from p0 wild-type mice and seeded in a density of 200,000 per well (24-well tray). After 7 days in vitro the neurons were stimulated with 1 uM P1 in neurobasal A media and incubated at 37° C. and 5% CO2 for 4 hours or 6 hours. Hereafter, the neurons were lysed in RIPA lysis buffer containing cOmplete cocktail protease inhibitor.

[1] = Plasma binding, human plasma, ultracentrifugation; assay type: in vitro ADME
Description: (§1) For plasma binding, 2 μM P1 or Warfarin (positive control) were added to mouse or human plasma. After 30 minutes incubation at 37° C., samples where ultracentrifuged for 4 hours to generate protein-free samples for LCMS analysis. In parallel, plasma was incubated for 4.5 h to determine total levels after incubation. Plasma binding was calculated as % Bound=100*(1−F/T4.5), where F is concentration of free ligand and T4.5 is the concentration of total ligand after incubation.

cortical neurons = assay: Survival of wild-type cortical neurons, MTT assay; assay type: cell-based, mouse
Description: Cortical neurons were isolated from p0 wild-type mice and seeded in a density of 50.000 in a 96-well plate pre-coated with poly-L and laminin and incubated at 37° C. in a 5% C02 atmosphere. At 7 days in vitro (DIV7) the neurons were treated by changing half the media with neurobasal A with B27 containing the peptides (P2, P4 or P6) to give a finale concentration of 1 uM and further incubated. The cortical neurons were treated in a likewise manner on DIV9 and DIV11. At DIV12 half the media was removed and 3-(4,5-dimethylthiazole-2-yl)-2,5-diphenyltetrazolium bromide (MTT) was added to the media to give a finale concentration of 0.5 mg/mL. MTT is reduced by mitochondrial enzymes in active cells to an insoluble product called formazan, which can be detected by colorimetry. Thus, the colour generated reflects activity and viable cells in the culture. The neurons were incubated for 4 hours with MTT and thereafter lysed in a 50% EtOH and 50% DMSO solution. To assure proper mixing of formazan, the plate was left to shake for 30 minutes before being measured at 570 nm and 650 nm. Student's t-test was used for statistical analysis.
Further, a drug-dose response on survival for peptide P1 was assessed in a similar manner.

[2] = tested on: AMPK (T172) and Raptor (S792); assay: Phosphorylation of AMPK (T172) and Raptor (S792) in cortical neurons, western blotting; assay type: cell-based, mouse; conditions: 1 uM, 20 minutes
Description: To assess the ability of peptide P1 to activate AMPK and subsequently inactivate the mTOR complex, mouse cortical neurons were isolated from p0 wild-type mice and seeded in a density of 250,000 per well in a 12-well tray. After 7 days in vitro the neurons were stimulated with P1 in neurobasal A media and incubated at 37° C. and 5% CO2 for 20 minutes. Hereafter, the neurons were lysed in lysis buffer containing DTT and cOmplete cocktail protease inhibitor. The phosphorylation of AMPK (T172) and Raptor (S792) was validated by western blotting normalized to beta-actin.

[3] = tested on: primary hippocampal neurons; assay: Lysosomal acidification in wild-type hippocampal neurons, LysoSensor DND-189 live imaging; assay type: cell-based, mouse; conditions: 1 uM
Description: Primary hippocampal neurons were seeded in an 8-well ibidi chamber pre-coated with Poly-I and laminin. 75.000 neurons were seeded pr. well. After 5 days in vitro the neurons were stimulated for 4, 8 or 24 hours with peptide P1 at 1 uM in neurobasal A with B27. After stimulation, the medium was changed to pre-warmed (37° C.) neurobasal A containing 1 uM of LysoSensor probe DND-189 (an acidotropic probes that accumulates in acidic organelles as the result of protonation) and incubated for 30 min. at 37° C. in a 5% C02 atmosphere. Hereafter, the media was changed to pre-warmed FluoroBrite Medium and the neurons were imaged in Olympus microscopy system. Pictures were taken of the lysosomes and processed using the ScanR imaging software to give fluorescence (intensity) of each lysosomal vesicle. The summed total intensity of all lysosomes was calculated and divided by the total number of neurons imaged yielding the total intensity of lysosomes per neuron. Student's t-test was used for statistical analysis.

[4] = Plasma binding, mouse plasma, ultracentrifugation; assay type: in vitro ADME
Description: as §1

[5] = 2 μM, up to 60 minutes
Description: S9 fractions from 5 different species were incubated with 2 μM P1 (SEQ ID NO: 1) or 7-Ethoxycoumarin (positive control for clearance) and necessary reactants for up to 60 minutes at 37° C. Reactions were stopped and samples were analysed by LCMS.

[6] = read-out: compound unbound in plasma

SMILES: CSCC[C@@H]1NC(=O)[C@H](C(C)C)NC(=O)[C@H](CC(=O)O)NC(=O)[C@H](CCC(=O)O)NC(=O)[C@H](CCC(=O)O)NC(=O)[C@H](Cc2c[nH]cn2)NC(=O)[C@H](CCC(=O)O)NC(=O)[C@H](C(C)C)NC(=O)[C@@H]2CCCN2C(=O)[C@H](CCC(=O)O)NC(=O)[C@H]([C@@H](C)O)NC1=O [Peptide P1, [MTEPVEHEEDV]] (cyclo(MTEPVEHEEDV))
- 340/380 intensity ratio (SH-SY5Y cells): reduction
- drop in lysosomal pH (SH-SY5Y cells): ~0.2 pH
- BDNF level (BDNF, TFEB and PGC1a): upregulated
- PGC1a level (BDNF, TFEB and PGC1a): upregulated
- TFEB level (BDNF, TFEB and PGC1a): upregulated
- plasma binding ([1]; 2 μM): 20%
- fraction unbound at 30 min, 2 μM [1, 6]: > 0.75
- survival in drug-dose response study (cortical neurons; BDNF as positive control): increases survival
- EC50 (cortical neurons; drug-dose response, Example 5): 2700 nM
- AMPK phosphorylation on T172 [2]: activates AMPK
- Raptor phosphorylation on S792 [2]: inactivates Raptor
- lysosomal intensity (lysosomal acidification) ([3]; 4 hours): lysosomal intensity was increased
- lysosomal intensity (lysosomal acidification) ([3]; 8 hours): lysosomal intensity was increased
- lysosomal intensity (lysosomal acidification) ([3]; 24 hours): no difference
- plasma binding ([4]; 2 μM): very low plasma binding
- fraction unbound at 30 min, 2 μM [4, 6]: > 0.75
- clearance and stability in liver S9 fractions ([5]; 5 different species): low clearance and high stability
- stability in mouse and human S9 liver fractions ([5]; mouse and human): some stability is lost
